Reference: patent publication US20260116920A1, “HUMAN TRANSFERRIN RECEPTOR BINDING PEPTIDE” (PEPTIDREAM INC., priority 2021, published 2026)
Where two headings read alike, the source gives them in different places. Positions of bridges follow the written chain, without caps; N, C: chain ends. Non-standard residues stand in square brackets, D forms with d. Residues, ends and D or L forms follow the SMILES beside them. *: point of attachment. Trp(1-CH2COOH) = N[C@@H](Cc1cn(CC(=O)O)c2ccccc12)C(=O)O; Nle(6-morpholino) = N[C@@H](CCCCN1CCOCC1)C(=O)O; Phe(3-COOH) = N[C@@H](Cc1cccc(C(=O)O)c1)C(=O)O; Trp(7-aza) = N[C@@H](Cc1c[nH]c2ncccc12)C(=O)O; NH(CH2CH2O)8Me = COCCOCCOCCOCCOCCOCCOCCOCCN*; NMePhe(3-Cl) = CN[C@@H](Cc1cccc(Cl)c1)C(=O)O; NMeY = CN[C@@H](Cc1ccc(O)cc1)C(=O)O; PEG4 = NCCOCCOCCOCCOCCC(=O)O; Carboxymethyl = O=C(O)C*

Biological target: T1, human transferrin receptor (hTfR) (Homo sapiens, UniProt P02786)
T1 construct: made in house
T1 sequence (P02786 89-760 limits assumed): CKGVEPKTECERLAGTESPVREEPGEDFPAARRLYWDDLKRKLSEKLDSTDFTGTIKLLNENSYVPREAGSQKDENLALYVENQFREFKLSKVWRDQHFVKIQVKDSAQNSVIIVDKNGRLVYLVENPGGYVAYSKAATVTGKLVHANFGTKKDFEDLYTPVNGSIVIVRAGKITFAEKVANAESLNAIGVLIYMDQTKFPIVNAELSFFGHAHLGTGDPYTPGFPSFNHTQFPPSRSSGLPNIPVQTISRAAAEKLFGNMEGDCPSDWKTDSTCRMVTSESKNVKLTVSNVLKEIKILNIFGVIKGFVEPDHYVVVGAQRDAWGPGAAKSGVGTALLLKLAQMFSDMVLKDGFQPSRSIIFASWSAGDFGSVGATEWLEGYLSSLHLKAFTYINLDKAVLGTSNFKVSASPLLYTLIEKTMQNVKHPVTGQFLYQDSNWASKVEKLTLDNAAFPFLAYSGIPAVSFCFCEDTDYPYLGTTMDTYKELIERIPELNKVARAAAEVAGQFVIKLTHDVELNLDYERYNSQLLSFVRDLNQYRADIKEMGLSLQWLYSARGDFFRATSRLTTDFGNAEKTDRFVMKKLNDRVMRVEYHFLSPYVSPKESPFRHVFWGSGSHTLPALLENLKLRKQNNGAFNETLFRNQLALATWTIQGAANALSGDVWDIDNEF
Experiment: Evaluation of molecular interaction between transferrin receptor (hTfR) and peptide using surface plasmon resonance (SPR)
Format: binding
Settings: surface plasmon resonance
Procedure, shortened: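 KD values are derived by least-squares fitting of single-cycle kinetic sensorgrams. Peptide series (5–100 nM) flows over recombinant hTfR dimer immobilized on a Ni-NTA chip by EDC/NHS coupling, in pH 8.0 HEPES buffer containing 0.1% BSA and 1.0% DMSO.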

[1] = binding to hTfR, KD class symbol, read-out: SPR (KD value)
[2] = peptide with linker, read-out: SPR (KD class for binding to hTfR)

| SMILES | Kd [1] [nM] | Kd [2] [nM] |
| --- | --- | --- |
| CC[C@H](C)[C@@H]1NC(=O)[C@H](Cc2ccc(OCC(=O)O)cc2)NC(=O)[C@H](Cc2ccc(O)cc2)NC(=O)[C@H](CC(N)=O)NC(=O)[C@H](Cc2cn(CC(=O)O)c3ccccc23)NC(=O)[C@H](C(C)C)NC(=O)[C@H](Cc2cccc(Cl)c2)N(C)C(=O)[C@H](C(C)C)NC(=O)[C@H](C)NC(=O)CSC[C@@H](C(=O)NCCOCCOCCOCCOCCC(N)=O)NC(=O)[C@H](Cc2ccc(O)cc2)N(C)C(=O)[C@H](Cc2cccc(C(=O)O)c2)NC(=O)[C@H](CCCNC(=N)N)NC(=O)[C@H](CCC(N)=O)NC(=O)[C@H]([C@@H](C)CC)NC1=O [compound 136] | 1 to 100 | – |
| CC[C@H](C)[C@@H]1NC(=O)[C@H](Cc2ccc(OCC(=O)O)cc2)NC(=O)[C@H](Cc2ccc(O)cc2)NC(=O)[C@H](CC(N)=O)NC(=O)[C@H](Cc2c[nH]c3ncccc23)NC(=O)[C@H](C(C)C)NC(=O)[C@H](Cc2cccc(Cl)c2)N(C)C(=O)[C@H](C(C)C)NC(=O)[C@H](C)NC(=O)CSC[C@@H](C(=O)NCCOCCOCCOCCOCCC(N)=O)NC(=O)[C@H](Cc2ccc(O)cc2)N(C)C(=O)[C@H](Cc2ccncc2)NC(=O)[C@H](CCCNC(=N)N)NC(=O)[C@H](CCC(N)=O)NC(=O)[C@H]([C@@H](C)CC)NC1=O [compound 137] | 1 to 100 | – |
| CC[C@H](C)[C@@H]1NC(=O)[C@H](Cc2ccc(OCC(=O)O)cc2)NC(=O)[C@H](Cc2ccc(O)cc2)NC(=O)[C@H](CC(N)=O)NC(=O)[C@H](Cc2c[nH]c3ncccc23)NC(=O)[C@H](C(C)C)NC(=O)[C@H](Cc2cccc(Cl)c2)N(C)C(=O)[C@H](C(C)C)NC(=O)[C@H](C)NC(=O)CSC[C@@H](C(=O)NCCOCCOCCOCCOCCC(N)=O)NC(=O)[C@H](Cc2ccc(O)cc2)N(C)C(=O)[C@H](Cc2ccncc2)NC(=O)[C@H](CCCCN2CCOCC2)NC(=O)[C@H](CCC(N)=O)NC(=O)[C@H]([C@@H](C)CC)NC1=O [compound 138] | 1 to 100 | – |
| CC[C@H](C)[C@@H]1NC(=O)[C@H](Cc2ccc(OCC(=O)O)cc2)NC(=O)[C@H](Cc2ccc(O)cc2)NC(=O)[C@H](CC(N)=O)NC(=O)[C@H](Cc2c[nH]c3ncccc23)NC(=O)[C@H](C(C)C)NC(=O)[C@H](Cc2cccc(Cl)c2)N(C)C(=O)[C@H](C(C)C)NC(=O)[C@H](C)NC(=O)CSC[C@@H](C(=O)NCCOCCOCCOCCOCCC(N)=O)NC(=O)[C@H](Cc2ccc(O)cc2)N(C)C(=O)[C@H](Cc2cccc(C(=O)O)c2)NC(=O)[C@H](CCCCN2CCOCC2)NC(=O)[C@H](CCC(N)=O)NC(=O)[C@H]([C@@H](C)CC)NC1=O [compound 140] ({CH2CO}-AV[NMePhe(3-Cl)]V[Trp(7-aza)]NYY(Carboxymethyl)IIQ[Nle(6-morpholino)][Phe(3-COOH)][NMeY]C[PEG4]-NH2; thioether N-15) | 1 to 100 | – |
| CC[C@H](C)[C@@H]1NC(=O)[C@H](Cc2ccc(OCC(=O)O)cc2)NC(=O)[C@H](Cc2ccc(N)nc2)NC(=O)[C@H](CC(N)=O)NC(=O)[C@H](Cc2c[nH]c3ccccc23)NC(=O)[C@H](C(C)C)NC(=O)[C@H](Cc2cccc(Cl)c2)N(C)C(=O)[C@H](C(C)C)NC(=O)[C@H](C)NC(=O)CSC[C@@H](C(=O)NCCOCCOCCOCCOCCC(N)=O)NC(=O)[C@H](Cc2ccc(O)cc2)N(C)C(=O)[C@H](Cc2ccncc2)NC(=O)[C@H](CCCNC(=N)N)NC(=O)[C@H](CCC(=O)NCCOCCOCCOCCOCCOCCOCCOCCOC)NC(=O)[C@H]([C@@H](C)CC)NC1=O [compound 141] | 100 to 1000 | – |
| CC[C@H](C)[C@@H]1NC(=O)[C@H](Cc2ccc(OCC(=O)O)cc2)NC(=O)[C@H](Cc2ccc(O)cc2)NC(=O)[C@H](CC(N)=O)NC(=O)[C@H](Cc2cn(CC(=O)O)c3ccccc23)NC(=O)[C@H](C(C)C)NC(=O)[C@H](Cc2cccc(Cl)c2)N(C)C(=O)[C@H](C(C)C)NC(=O)[C@H](C)NC(=O)CSC[C@@H](C(=O)NCCOCCOCCOCCOCCC(N)=O)NC(=O)[C@H](Cc2ccc(O)cc2)N(C)C(=O)[C@H](Cc2cccc(C(=O)O)c2)NC(=O)[C@H](CCCCN2CCOCC2)NC(=O)[C@H](CCC(N)=O)NC(=O)[C@H]([C@@H](C)CC)NC1=O [compound 216] ({CH2CO}-AV[NMePhe(3-Cl)]V[Trp(1-CH2COOH)]NYY(Carboxymethyl)IIQ[Nle(6-morpholino)][Phe(3-COOH)][NMeY]C[PEG4]-NH2; thioether N-15) | – | 1 to 100 |
| CC[C@H](C)[C@@H]1NC(=O)[C@H](Cc2ccc(OCC(=O)O)cc2)NC(=O)[C@H](Cc2ccc(O)cc2)NC(=O)[C@H](CC(N)=O)NC(=O)[C@H](Cc2c[nH]c3ncccc23)NC(=O)[C@H](C(C)C)NC(=O)[C@H](Cc2cccc(Cl)c2)N(C)C(=O)[C@H](C(C)C)NC(=O)[C@H](C)NC(=O)CSC[C@@H](C(=O)NCCOCCOCCOCCOCCC(N)=O)NC(=O)[C@H](Cc2ccc(O)cc2)N(C)C(=O)[C@H](CCC(=O)NCCOCCOCCOCCOCCOCCOCCOCCOC)NC(=O)[C@H](CCCNC(=N)N)NC(=O)[C@H](CCC(=O)NCCOCCOCCOCCOCCOCCOCCOCCOC)NC(=O)[C@H]([C@@H](C)CC)NC1=O [compound 221] ({CH2CO}-AV[NMePhe(3-Cl)]V[Trp(7-aza)]NYY(Carboxymethyl)IIE(NH(CH2CH2O)8Me)RE(NH(CH2CH2O)8Me)[NMeY]C[PEG4]-NH2; thioether N-15) | – | 1 to 100 |
| CC[C@H](C)[C@@H]1NC(=O)[C@H](Cc2ccc(OCC(=O)O)cc2)NC(=O)[C@H](Cc2ccc(N)nc2)NC(=O)[C@H](CC(N)=O)NC(=O)[C@H](Cc2cn(CC(=O)O)c3ccccc23)NC(=O)[C@H](C(C)C)NC(=O)[C@H](Cc2cccc(Cl)c2)N(C)C(=O)[C@H](C(C)C)NC(=O)[C@H](C)NC(=O)CSC[C@@H](C(=O)NCCOCCOCCOCCOCCC(N)=O)NC(=O)[C@H](Cc2ccc(O)cc2)N(C)C(=O)[C@H](Cc2ccncc2)NC(=O)[C@H](CCCNC(=N)N)NC(=O)[C@H](CCC(=O)NCCOCCOCCOCCOCCOCCOCCOCCOC)NC(=O)[C@H]([C@@H](C)CC)NC1=O [compound 222] | – | 1 to 100 |

Results, then the compound that gave them:

| Kd [1] [nM] | Kd [2] [nM] | SMILES |
| --- | --- | --- |
| 1 to 100 | – | CC[C@H](C)[C@@H]1NC(=O)[C@H](Cc2ccc(OCC(=O)O)cc2)NC(=O)[C@H](Cc2ccc(O)cc2)NC(=O)[C@H](CC(N)=O)NC(=O)[C@H](Cc2c[nH]c3ncccc23)NC(=O)[C@H](C(C)C)NC(=O)[C@H](Cc2cccc(Cl)c2)N(C)C(=O)[C@H](C(C)C)NC(=O)[C@H](C)NC(=O)CSC[C@@H](C(=O)NCCOCCOCCOCCOCCC(N)=O)NC(=O)[C@H](Cc2ccc(O)cc2)N(C)C(=O)[C@H](Cc2ccncc2)NC(=O)[C@H](CCCCN2CCOCC2)NC(=O)[C@H](CCC(=O)NCCOCCOCCOCCOCCOCCOCCOCCOC)NC(=O)[C@H]([C@@H](C)CC)NC1=O [compound 139] |
| – | 1 to 100 | CC[C@H](C)[C@@H]1NC(=O)[C@H](Cc2ccc(OCC(=O)O)cc2)NC(=O)[C@H](Cc2ccc(O)cc2)NC(=O)[C@H](CC(N)=O)NC(=O)[C@H](Cc2cn(CC(=O)O)c3ccccc23)NC(=O)[C@H](C(C)C)NC(=O)[C@H](Cc2cccc(Cl)c2)N(C)C(=O)[C@H](C(C)C)NC(=O)[C@H](C)NC(=O)CSC[C@@H](C(=O)NCCOCCOCCOCCOCCC(N)=O)NC(=O)[C@H](Cc2ccc(O)cc2)N(C)C(=O)[C@H](Cc2cccc(C(=O)O)c2)NC(=O)[C@H](CCCCN2CCOCC2)NC(=O)[C@H](CCC(=O)NCCOCCOCCOCCOCCOCCOCCOCCOC)NC(=O)[C@H]([C@@H](C)CC)NC1=O [compound 217] ({CH2CO}-AV[NMePhe(3-Cl)]V[Trp(1-CH2COOH)]NYY(Carboxymethyl)IIE(NH(CH2CH2O)8Me)[Nle(6-morpholino)][Phe(3-COOH)][NMeY]C[PEG4]-NH2; thioether N-15) |
| – | 1 to 100 | CC[C@H](C)[C@@H]1NC(=O)[C@H](Cc2ccc(OCC(=O)O)cc2)NC(=O)[C@H](Cc2ccc(O)cc2)NC(=O)[C@H](CC(N)=O)NC(=O)[C@H](Cc2c[nH]c3ncccc23)NC(=O)[C@H](C(C)C)NC(=O)[C@H](Cc2cccc(Cl)c2)N(C)C(=O)[C@H](C(C)C)NC(=O)[C@H](C)NC(=O)CSC[C@@H](C(=O)NCCOCCOCCOCCOCCC(N)=O)NC(=O)[C@H](Cc2ccc(O)cc2)N(C)C(=O)[C@H](Cc2ccncc2)NC(=O)[C@H](CCCNC(=N)N)NC(=O)[C@H](CCC(=O)NCCOCCOCCOCCOCCOCCOCCOCCOC)NC(=O)[C@H]([C@@H](C)CC)NC1=O [compound 218] |
| – | 1 to 100 | CC[C@H](C)[C@@H]1NC(=O)[C@H](Cc2ccc(OCC(=O)O)cc2)NC(=O)[C@H](Cc2ccc(O)cc2)NC(=O)[C@H](CC(N)=O)NC(=O)[C@H](Cc2cn(CC(=O)O)c3ccccc23)NC(=O)[C@H](C(C)C)NC(=O)[C@H](Cc2cccc(Cl)c2)N(C)C(=O)[C@H](C(C)C)NC(=O)[C@H](C)NC(=O)CSC[C@@H](C(=O)NCCOCCOCCOCCOCCC(N)=O)NC(=O)[C@H](Cc2ccc(O)cc2)N(C)C(=O)[C@H](Cc2ccncc2)NC(=O)[C@H](CCCCN2CCOCC2)NC(=O)[C@H](CCC(=O)NCCOCCOCCOCCOCCOCCOCCOCCOC)NC(=O)[C@H]([C@@H](C)CC)NC1=O [compound 219] |
| – | 1 to 100 | CC[C@H](C)[C@@H]1NC(=O)[C@H](Cc2ccc(OCC(=O)O)cc2)NC(=O)[C@H](Cc2ccc(O)cc2)NC(=O)[C@H](CC(N)=O)NC(=O)[C@H](Cc2c[nH]c3ncccc23)NC(=O)[C@H](C(C)C)NC(=O)[C@H](Cc2cccc(Cl)c2)N(C)C(=O)[C@H](C(C)C)NC(=O)[C@H](C)NC(=O)CSC[C@@H](C(=O)NCCOCCOCCOCCOCCC(N)=O)NC(=O)[C@H](Cc2ccc(O)cc2)N(C)C(=O)[C@H](Cc2cccc(C(=O)O)c2)NC(=O)[C@H](CCCCN2CCOCC2)NC(=O)[C@H](CCC(=O)NCCOCCOCCOCCOCCOCCOCCOCCOC)NC(=O)[C@H]([C@@H](C)CC)NC1=O [compound 220] ({CH2CO}-AV[NMePhe(3-Cl)]V[Trp(7-aza)]NYY(Carboxymethyl)IIE(NH(CH2CH2O)8Me)[Nle(6-morpholino)][Phe(3-COOH)][NMeY]C[PEG4]-NH2; thioether N-15) |
